From ChEMBL document CHEMBL1201862, “PubChem BioAssay data set” (2004)
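Grown in 96-well plates, cells were treated for 48 hours with each compound at five concentrations. Insufficient inhibition: endpoint recorded as highest concentration tested. The concentration for 50% growth inhibition is given as GI50.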 Calls of active or inactive are those of the source. Cut-off read from the data, not from the text of the source: active = GI50 up to about 1.1 µM and inactive = higher.

How the values were obtained:
Test in all cases: NCI-60 cell line screen, 48 h
HL-60 = system: HL-60
NCI-H23 = system: NCI-H23
CAKI-1 = system: CAKI-1
SK-MEL-28 = system: SK-MEL-28
MCF7 = system: MCF7
MDA-MB-231 = system: MDA-MB-231
MDA-N = system: MDA-N
K562 = system: K562
UO-31 = system: UO-31
SNB-75 = system: SNB-75
SK-OV-3 = system: SK-OV-3
PC-3 = system: PC-3
SN12C = system: SN12C
COLO 205 = system: COLO 205
HCC 2998 = system: HCC 2998
DU-145 = system: DU-145
RXF 393 = system: RXF 393
BT-549 = system: BT-549
SF-295 = system: SF-295
OVCAR-3 = system: OVCAR-3
HCT-116 = system: HCT-116
M14 = system: M14
MDA-MB-435 = system: MDA-MB-435
HCT-15 = system: HCT-15
SNB-19 = system: SNB-19
HOP-62 = system: HOP-62
EKVX = system: EKVX
SK-MEL-5 = system: SK-MEL-5
A549 = system: A549
NCI/ADR-RES = system: NCI/ADR-RES
UACC-257 = system: UACC-257
IGROV-1 = system: IGROV-1
RPMI-8226 = system: RPMI-8226
U-251 = system: U-251
SW-620 = system: SW-620
Hs-578T = system: Hs-578T
NCI-H226 = system: NCI-H226
NCI-H460 = system: NCI-H460
OVCAR-4 = system: OVCAR-4
SK-MEL-2 = system: SK-MEL-2
ACHN = system: ACHN
SF-268 = system: SF-268
KM12 = system: KM12
OVCAR-8 = system: OVCAR-8
CCRF-CEM = system: CCRF-CEM
HT-29 = system: HT-29
T47D = system: T47D
UACC-62 = system: UACC-62
MOLT-4 = system: MOLT-4
Malme-3M = system: Malme-3M
786-0 = system: 786-0
OVCAR-5 = system: OVCAR-5
TK-10 = system: TK-10
HOP-92 = system: HOP-92
NCI-H522 = system: NCI-H522
A498 = system: A498
LOX IMVI = system: LOX IMVI
SF-539 = system: SF-539

## Cc1ccc(/N=N/N(C)C(C)C(O)Cc2ccccc2)cc1 (stereo unspecified)
HL-60
  GI50: 33.8 µM (inactive)
NCI-H23
  GI50: 50.9 µM (inactive)
CAKI-1
  GI50: 93.8 µM (inactive)
SK-MEL-28
  GI50: 65.8 µM (inactive)
MCF7
  GI50: 47.9 µM (inactive)
MDA-MB-231
  GI50: 52.7 µM (inactive)
MDA-N
  GI50: 23.7 µM (inactive)
K562
  GI50: 39.3 µM (inactive)
UO-31
  GI50: 18 µM (inactive)
SNB-75
  GI50: 43.9 µM (inactive)
SK-OV-3
  GI50: > 100 µM (inactive)
PC-3
  GI50: 20.3 µM (inactive)
SN12C
  GI50: 27.9 µM (inactive)
COLO 205
  GI50: 40.9 µM (inactive)
HCC 2998
  GI50: 53.3 µM (inactive)
DU-145
  GI50: 52.1 µM (inactive)
RXF 393
  GI50: 40.6 µM (inactive)
BT-549
  GI50: 41 µM (inactive)
SF-295
  GI50: 38.3 µM (inactive)
OVCAR-3
  GI50: 84.3 µM (inactive)
HCT-116
  GI50: 49.3 µM (inactive)
M14
  GI50: 95.7 µM (inactive)
MDA-MB-435
  GI50: 35.9 µM (inactive)
HCT-15
  GI50: 41 µM
SNB-19
  GI50: 82.2 µM (inactive)
HOP-62
  GI50: > 100 µM (inactive)
EKVX
  GI50: 62.2 µM (inactive)
SK-MEL-5
  GI50: 39.6 µM (inactive)
A549
  GI50: 60.5 µM (inactive)
NCI/ADR-RES
  GI50: 40.4 µM (inactive)
UACC-257
  GI50: 84.9 µM (inactive)
IGROV-1
  GI50: 29.2 µM (inactive)
RPMI-8226
  GI50: 12.4 µM (inactive)
U-251
  GI50: 88.5 µM (inactive)
SW-620
  GI50: 64.9 µM (inactive)
Hs-578T
  GI50: 41.9 µM (inactive)
NCI-H226
  GI50: > 100 µM (inactive)
NCI-H460
  GI50: 36.5 µM (inactive)
OVCAR-4
  GI50: > 100 µM (inactive)
SK-MEL-2
  GI50: 37.8 µM (inactive)
ACHN
  GI50: 78.5 µM (inactive)
SF-268
  GI50: 46 µM (inactive)
KM12
  GI50: 25.2 µM (inactive)
OVCAR-8
  GI50: 37.7 µM (inactive)
CCRF-CEM
  GI50: 32.7 µM (inactive)
HT-29
  GI50: 80.4 µM (inactive)
T47D
  GI50: 33.7 µM (inactive)
UACC-62
  GI50: 52.1 µM (inactive)
MOLT-4
  GI50: 33.7 µM (inactive)
Malme-3M
  GI50: > 100 µM (inactive)
786-0
  GI50: 59.4 µM (inactive)
OVCAR-5
  GI50: > 100 µM (inactive)
TK-10
  GI50: 29 µM (inactive)

## CC(C)C[C@H]1[C@@H](OCc2ccccc2)COS(=O)N1[C@H](C)c1ccccc1 (stereo partly specified)
HL-60
  GI50: 8.15 µM (inactive)
NCI-H23
  GI50: 26.1 µM (inactive)
CAKI-1
  GI50: 20.2 µM (inactive)
SK-MEL-28
  GI50: 37.6 µM (inactive)
MDA-MB-231
  GI50: 20.2 µM (inactive)
MDA-N
  GI50: 24.9 µM (inactive)
K562
  GI50: 5.51 µM (inactive)
UO-31
  GI50: 25.3 µM (inactive)
HOP-92
  GI50: 18.9 µM (inactive)
SNB-75
  GI50: 15.6 µM (inactive)
SK-OV-3
  GI50: 14.5 µM (inactive)
NCI-H522
  GI50: 4.33 µM (inactive)
PC-3
  GI50: 5.79 µM (inactive)
SN12C
  GI50: 17.5 µM (inactive)
COLO 205
  GI50: 15.2 µM (inactive)
DU-145
  GI50: 37.8 µM (inactive)
A498
  GI50: 22.7 µM (inactive)
RXF 393
  GI50: 13.1 µM (inactive)
BT-549
  GI50: 38.1 µM (inactive)
SF-295
  GI50: 4 µM (inactive)
OVCAR-3
  GI50: 10.2 µM (inactive)
HCT-116
  GI50: 4.85 µM (inactive)
M14
  GI50: 7.66 µM (inactive)
MDA-MB-435
  GI50: 22.4 µM (inactive)
HCT-15
  GI50: 26.9 µM
SNB-19
  GI50: 30.3 µM (inactive)
HOP-62
  GI50: 19.1 µM (inactive)
EKVX
  GI50: 28.6 µM (inactive)
SK-MEL-5
  GI50: 10.2 µM (inactive)
A549
  GI50: 17.5 µM (inactive)
NCI/ADR-RES
  GI50: 18.7 µM (inactive)
UACC-257
  GI50: 16 µM (inactive)
IGROV-1
  GI50: 8.75 µM (inactive)
LOX IMVI
  GI50: 13.1 µM (inactive)
RPMI-8226
  GI50: 5.51 µM (inactive)
U-251
  GI50: 13.3 µM (inactive)
SW-620
  GI50: 29.1 µM (inactive)
Hs-578T
  GI50: 12 µM (inactive)
NCI-H226
  GI50: 10.9 µM (inactive)
NCI-H460
  GI50: 15.3 µM (inactive)
SK-MEL-2
  GI50: 15.7 µM (inactive)
ACHN
  GI50: 19.5 µM (inactive)
SF-268
  GI50: 24.2 µM (inactive)
KM12
  GI50: 13.2 µM (inactive)
OVCAR-8
  GI50: 26.7 µM (inactive)
CCRF-CEM
  GI50: 13.3 µM (inactive)
HT-29
  GI50: 6.95 µM (inactive)
T47D
  GI50: 9.55 µM (inactive)
UACC-62
  GI50: 35.1 µM (inactive)
MOLT-4
  GI50: 11.9 µM (inactive)
Malme-3M
  GI50: 12.7 µM (inactive)
786-0
  GI50: 13.9 µM (inactive)
OVCAR-5
  GI50: 18.9 µM (inactive)
TK-10
  GI50: 20.6 µM (inactive)

## O=C1c2ccccc2-c2c1c(-c1ccc(O)cc1O)nc1ccc3ccccc3c21
NCI-H23
  GI50: > 100 µM (inactive)
CAKI-1
  GI50: > 100 µM (inactive)
SK-MEL-28
  GI50: > 100 µM (inactive)
MCF7
  GI50: 79.4 µM (inactive)
MDA-MB-231
  GI50: 27.8 µM (inactive)
MDA-N
  GI50: > 100 µM (inactive)
K562
  GI50: > 100 µM (inactive)
UO-31
  GI50: > 100 µM (inactive)
SNB-75
  GI50: > 100 µM (inactive)
SK-OV-3
  GI50: > 100 µM (inactive)
SF-539
  GI50: > 100 µM (inactive)
PC-3
  GI50: > 100 µM (inactive)
SN12C
  GI50: > 100 µM (inactive)
COLO 205
  GI50: > 100 µM (inactive)
HCC 2998
  GI50: > 100 µM (inactive)
DU-145
  GI50: > 100 µM (inactive)
A498
  GI50: > 100 µM (inactive)
BT-549
  GI50: > 100 µM (inactive)
SF-295
  GI50: > 100 µM (inactive)
HCT-116
  GI50: > 100 µM (inactive)
M14
  GI50: > 100 µM (inactive)
MDA-MB-435
  GI50: > 100 µM (inactive)
HCT-15
  GI50: > 100 µM
SNB-19
  GI50: > 100 µM (inactive)
HOP-62
  GI50: 49 µM (inactive)
EKVX
  GI50: > 100 µM (inactive)
A549
  GI50: > 100 µM (inactive)
NCI/ADR-RES
  GI50: > 100 µM (inactive)
UACC-257
  GI50: > 100 µM (inactive)
RPMI-8226
  GI50: > 100 µM (inactive)
U-251
  GI50: 75.2 µM (inactive)
SW-620
  GI50: > 100 µM (inactive)
Hs-578T
  GI50: 21.1 µM (inactive)
NCI-H226
  GI50: > 100 µM (inactive)
NCI-H460
  GI50: > 100 µM (inactive)
OVCAR-4
  GI50: > 100 µM (inactive)
SK-MEL-2
  GI50: > 100 µM (inactive)
ACHN
  GI50: > 100 µM (inactive)
SF-268
  GI50: > 100 µM (inactive)
KM12
  GI50: > 100 µM (inactive)
OVCAR-8
  GI50: 79.6 µM (inactive)
CCRF-CEM
  GI50: > 100 µM (inactive)
HT-29
  GI50: > 100 µM (inactive)
T47D
  GI50: > 100 µM (inactive)
UACC-62
  GI50: > 100 µM (inactive)
MOLT-4
  GI50: > 100 µM (inactive)
Malme-3M
  GI50: > 100 µM (inactive)
786-0
  GI50: > 100 µM (inactive)
OVCAR-5
  GI50: > 100 µM (inactive)
